Test results as given in patent US6194437A (Warner-Lambert Company, priority 1999, dated 2001).
pKi: −log10 of the molar value.

Experiments:
[1] = target: T1, cloned human NMB-preferring receptors expressed in CHO cells (Homo sapiens, UniProt P28336); test: Measurement of extracellular acidification (CYTOSENSOR) in CHO-NMB cells; assay type: cell-based; conditions: NMB-preferring receptor (BB1), antagonist 30 minutes prior to agonist, 37° C.
T1 construct: functional calcium (Fura-2) and Cytosensor acidification assays
T1 sequence (P28336 whole entry): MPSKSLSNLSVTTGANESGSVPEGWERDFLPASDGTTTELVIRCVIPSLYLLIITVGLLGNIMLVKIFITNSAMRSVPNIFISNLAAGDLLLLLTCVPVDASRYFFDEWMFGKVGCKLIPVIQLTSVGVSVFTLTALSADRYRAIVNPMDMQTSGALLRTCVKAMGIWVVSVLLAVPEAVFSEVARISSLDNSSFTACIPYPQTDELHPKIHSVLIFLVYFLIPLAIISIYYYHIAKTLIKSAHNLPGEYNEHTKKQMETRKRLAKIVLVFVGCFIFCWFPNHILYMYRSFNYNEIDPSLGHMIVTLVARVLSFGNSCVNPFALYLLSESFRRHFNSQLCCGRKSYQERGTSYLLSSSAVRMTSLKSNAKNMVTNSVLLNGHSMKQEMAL
Source text: (§1) The compounds of the invention have been tested in in vitro functional assays using cloned human NMB-preferring receptors expressed in CHO cells.
(§2) Protocols for functional assays:
2. Measurement of extracellular acidification (CYTOSENSOR)
This acidification rate is detected as a change in potential across a silicon light addressable sensor, during periods of media cessation (McConnell, et al., 1992).
CHO-NMB Cells seeded on polycarbonate microporous capsule cups were placed insensor chambers at 37° C. inside the microphysiometer, and maintained by a flow of nonbuffering Ham's F12 nutrient media (growth media without NaHCO3, pH 7.3-7.4) at approximately 120 μL/min. The flow was halted for 22 seconds at the end of each 2 minute repeated cycle, and the rate of acidification (μ volts/sec) measured for 15 seconds during that period.
Agonists were introduced sequentially every 28 to 30 minutes to the perfusing media, 20 seconds before flow-off periods, and removed after two rate measurements via the automatic valve-switch.
The effects of various antagonists were determined after continuous perfusion 30 minutes prior to, and throughout the application of agonists. All agents were applied at the working pH of the media.

[2] = target: T1, cloned human NMB-preferring receptors expressed in CHO cells; test: Measurement of intracellular calcium levels ([Ca2+]i mobilization, Fura-2) in CHO cells; assay type: cell-based; conditions: NMB-preferring receptor (BB1), read-out: [Ca2+]i Mobilization KE
Experimental: as §1, §2
1. Measurement of intracellular calcium levels
Culture of Chinese hamster ovary cells
Chinese hamster ovary cells were routinely grown as monolayers in Ham's F12 nutrient mixture supplemented with 10% FBS and […], and maintained at 37° C. under 5% CO2. Cells were passaged every 3 to 4 days. At each passaging, cells were seeded at a density of 3 to 6 million per 175 cm^2 flask. […]
Plated cells were incubated with 2 μM Fura-2-AM for between 45 and 120 minutes at 25° C. to 29° C. […] Single coverslips were then mounted in a chamber on top of an inverted fluorescence microscope and perfused with a Krebs-Hepes assay buffer (composition in mM: NaCl 118, KCl 4.7, MgSO4 1.2, CaCl^2 1.2, KH^2 PO^4 1.2, Hepes 10, glucose 11, pH 7.2 at 37° C.) {332}.
Measurements of [Ca^2+ ]^i in individual cells were made from the fluorescence ratio (excitations […] for Fura-2) using a specially designed filter wheel assembly, CCD camera or photomuliplier tubes, and specially designed suites of software (MAGICAL OR phocal, Applied Imaging, Sunderland, UK) which samples emission following excitation at different wavelengths at regular intervals. […]

[3] = target: T2, cloned human GRP-preferring receptor (BB2) (Homo sapiens, UniProt P30550); test: Receptor binding assay, cloned human GRP-preferring receptor (BB2), [125I][Tyr4]bombesin displacement; conditions: CHO-K1 cell membranes, 90 minutes incubation
T2 construct: expressed in transfected cells
T2 sequence (P30550 whole entry): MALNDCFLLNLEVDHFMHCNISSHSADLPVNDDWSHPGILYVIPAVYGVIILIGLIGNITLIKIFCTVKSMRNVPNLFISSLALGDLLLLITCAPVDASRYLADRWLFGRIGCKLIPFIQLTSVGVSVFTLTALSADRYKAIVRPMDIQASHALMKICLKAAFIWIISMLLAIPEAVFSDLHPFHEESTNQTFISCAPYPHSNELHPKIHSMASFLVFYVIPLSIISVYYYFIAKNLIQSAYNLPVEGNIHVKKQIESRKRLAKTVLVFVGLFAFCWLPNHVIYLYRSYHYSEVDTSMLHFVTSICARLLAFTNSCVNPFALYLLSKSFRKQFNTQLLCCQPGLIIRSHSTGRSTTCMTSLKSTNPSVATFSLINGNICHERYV
Experimental: The compounds of the invention have been evaluated in receptor binding assays which measure the affinity of the novel compounds in a cloned human NMB-preferring receptor (BB1) assay and in a cloned human GRP-preferring receptor (BB2) assay. Protocol for Binding Assays […] For binding experiments, cells were harvested by trypsinization, and stored frozen at -70° C. in Ham's F12 culture medium containing 5% DMSO until required. On the day of use, cells were thawed rapidly, diluted with an excess of culture medium, and centrifuged for 5 minutes at 2000 g. Cells were resuspended in 50 mM Tris-HCl assay buffer (pH 7.4 at 21° C., containing 0.02% BSA, 40 μg/ml bacitracin, 2 μg/mL chymostatin, 4 μg/mL leupeptin, and 2 μM phosphoramidon), counted, and polytronned (setting 5, 10 sec) before centrifuging for 10 minutes at 28,000 g. The final pellet was resuspended in assay buffer to a final cell concentration of 1.5×10^5 /mL. […] Radioactivity bound was determined using a gamma counter.

[4] = target: T3, cloned human NMB-preferring receptor (BB1) (Homo sapiens, UniProt P28336); test: Receptor binding assay, cloned human NMB-preferring receptor (BB1), [125I][Tyr4]bombesin displacement; conditions: CHO-K1 cell membranes, 60 minutes incubation
T3 construct: expressed in transfected cells
T3 sequence (P28336 whole entry): as the sequence (P28336 whole entry) above
Experimental: For binding experiments, cells were harvested by trypsinization, and stored frozen at -70° C. in Ham's F12 culture medium containing 5% DMSO until required. On the day of use, cells were thawed rapidly, diluted with an excess of culture medium, and centrifuged for 5 minutes at 2000 g. Cells were resuspended in 50 mM Tris-HCl assay buffer (pH 7.4 at 21° C., containing 0.02% BSA, 40 μg/ml bacitracin, 2 μg/mL chymostatin, 4 μg/mL leupeptin, and 2 μM phosphoramidon), counted, and polytronned (setting 5, 10 sec) before centrifuging for 10 minutes at 28,000 g. The final pellet was resuspended in assay buffer to a final cell concentration of 1.5×10^5 /mL. […] Radioactivity bound was determined using a gamma counter.

Acidification Response appKB [1] | Kb [2] | pKi [3] | pKi [4] | SMILES
7.6 | 18 nM | < 5.00 | 8.30 | CC(C)c1cccc(C(C)C)c1NC(=O)N[C@@](C)(Cc1c[nH]c2ccccc12)C(=O)NCC1(c2ccccn2)CCCCC1 [Example 1, 2-[3-(2,6-Diisopropyl-phenyl)-ureido]-3-(1H-indol-3-yl)-2-methyl-N-(1-pyridin-2-yl-cyclohexylmethyl)-propionamide]
54.3 |  | < 5.00 | 7.85 | CC(C)c1cccc(C(C)C)c1NC(=O)N[C@](C)(Cc1c[nH]c2ccccc12)C(=O)N[C@H]1CCCc2ccccc21 [Example 2, 2-[3-(2,6-Diisopropyl-phenyl)-ureido]-3-(1H-indol-3-yl)-2-methyl-N-(1,2,3,4-tetrahydro-naphthalen-1-yl)-propionamide]
1.0 | 1.2 nM | 7.72 | 9.82 | C[C@@](Cc1c[nH]c2ccccc12)(NC(=O)Nc1ccc([N+](=O)[O-])cc1)C(=O)NCC1(c2ccccn2)CCCCC1 [Example 14]
